According to publication PMC7562955 (Nature Communications, 2020):

Target: T1, human TLR9 (Homo sapiens, UniProt Q9NR96)
T1 construct: host or cells: HEK293 (TLR9/NF-κB/SEAPorter)
T1 sequence (Q9NR96 26-1032): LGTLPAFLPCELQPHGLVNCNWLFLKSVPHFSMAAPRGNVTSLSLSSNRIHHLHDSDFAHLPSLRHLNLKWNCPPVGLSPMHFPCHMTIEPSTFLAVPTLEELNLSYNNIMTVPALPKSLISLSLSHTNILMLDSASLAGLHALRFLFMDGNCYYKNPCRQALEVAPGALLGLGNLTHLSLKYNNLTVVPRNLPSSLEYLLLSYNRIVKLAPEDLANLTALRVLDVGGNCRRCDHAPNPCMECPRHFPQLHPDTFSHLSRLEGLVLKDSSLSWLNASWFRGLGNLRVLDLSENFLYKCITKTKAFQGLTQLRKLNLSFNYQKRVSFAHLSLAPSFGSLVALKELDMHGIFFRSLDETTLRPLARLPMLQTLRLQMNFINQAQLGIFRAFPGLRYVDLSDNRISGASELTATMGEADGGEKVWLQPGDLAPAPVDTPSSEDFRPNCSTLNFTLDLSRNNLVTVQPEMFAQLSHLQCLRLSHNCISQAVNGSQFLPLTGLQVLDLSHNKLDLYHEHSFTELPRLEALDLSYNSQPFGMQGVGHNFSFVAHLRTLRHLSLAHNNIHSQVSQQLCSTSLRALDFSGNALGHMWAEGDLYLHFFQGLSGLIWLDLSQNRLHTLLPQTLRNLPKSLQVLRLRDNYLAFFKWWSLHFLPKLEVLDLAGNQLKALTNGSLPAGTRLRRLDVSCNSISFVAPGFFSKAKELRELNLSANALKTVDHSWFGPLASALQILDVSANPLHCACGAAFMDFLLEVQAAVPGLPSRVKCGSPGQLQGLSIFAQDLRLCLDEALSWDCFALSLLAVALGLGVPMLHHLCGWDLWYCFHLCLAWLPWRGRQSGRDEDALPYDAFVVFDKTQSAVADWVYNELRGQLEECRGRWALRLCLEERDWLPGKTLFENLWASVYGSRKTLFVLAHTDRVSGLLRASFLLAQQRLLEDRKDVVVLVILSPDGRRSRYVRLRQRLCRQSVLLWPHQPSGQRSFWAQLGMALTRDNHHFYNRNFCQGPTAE
Assay: Human TLR9 reporter gene inhibitory activity assay (NF-κB/SEAP HEK293)
Format: cell-based
Details: for human TLR9 activity, reporter signal: CpG2006 500 nM
Protocol: Compounds were dissolved in dimethyl sulfoxide. Before stimulation with compound, Human TLR7 reporter cell line (TLR7/NF-κB/SEAPorter^TM HEK293 cell, Novus Biological, USA), human TLR8 reporter cell line (TLR8/NF-κB/SEAPorter^TM HEK293 cell, Novus Biological), and human TLR9 reporter cell line (TLR9/NF-κB/SEAPorter^TM HEK293 cell, Novus Biological) were seeded in 96-well microtiter plate (AGC techno glass, Japan) at 5 × 10^4 cells/well in DMEM (GIBCO, United Kingdam) with 10 % fetal bovine serum (GIBCO), and 10 ug/ml Blastcidin S HCl (GIBCO) and incubated at 37 °C in 5% CO2. The plates were incubated over-night and then stimulated with various concentrations of compound. […] After 30 min, R848 (human TLR7/8 ligand, synthesized at Sumitomo Dainippon Pharma, Japan) or CpG2006 (human TLR9 ligand, Hokkaido System Science Co., Ltd., Japan) added to each well, wherein each final concentration were adjusted to 200 nM R848 (human TLR7), 30 μM R848 (human TLR8), or 500 nM CpG2006 (human TLR9). The plates were then incubated an additional 20 ± 1 h at 37 °C in 5% CO2 and then the secreted embryonic alkaline phosphatase (SEAP) activity was measured as activation of human TLR7, 8, and 9. The SEAP activity was evaluated as follows: pNPP (Invitrogen, USA) was added to the incubated sample (50 μl/well); after 15 min, 4 M sodium hydroxide solution (nacalai tesque, Japan) was added thereto (50 μl/well) to quench the reaction; and the absorbance of each sample was measured at 405 nm with microplate reader SpectraMax M4 (Molecular Devices, USA).

In the case of `CCCCOc1nc(N)c2nc(-c3cccnc3)n(Cc3ccccc3)c2n1` [Cpd-5], the “inhibition of TLR9” value is reported as “without causing any inhibition”, the “human TLR9 activity, reporter signal” value (compound 0.0001 nM (as headed)) is reported as 0.3823 and the “human TLR9 activity, reporter signal” value (compound 0.001 nM (as headed)) is reported as 0.4021. The “human TLR9 activity, reporter signal” value (compound 0.003 nM (as headed)) was 0.4541, the “human TLR9 activity, reporter signal” value (compound 0.01 nM (as headed)) was 0.4157 and the “human TLR9 activity, reporter signal” value (compound 0.03 nM (as headed)) was 0.4224. The “human TLR9 activity, reporter signal” value (compound 0.1 nM (as headed)) was 0.4068, the “human TLR9 activity, reporter signal” value (compound 0.3 nM (as headed)) was 0.4193 and the “human TLR9 activity, reporter signal” value (compound 1 nM (as headed)) was 0.3613. The “human TLR9 activity, reporter signal” value (compound 3 nM (as headed)) was 0.3381, the “human TLR9 activity, reporter signal” value (compound 10 nM (as headed)) was 0.3129 and the “human TLR9 activity, reporter signal” value (compound 30 nM (as headed)) was 0.2475. The “human TLR9 activity, reporter signal” value (compound 100 nM (as headed)) was 0.2357.

For `CCOc1nc(N)c2nc(-c3cncc(F)c3)n(Cc3ccc(CN4C[C@@H]5C[C@H]4CN5C)cc3)c2n1` [Cpd-6], the “human TLR9 activity, reporter signal” value (compound 0.0001 nM (as headed)) was 0.3816, the “human TLR9 activity, reporter signal” value (compound 0.001 nM (as headed)) was 0.371 and the “human TLR9 activity, reporter signal” value (compound 0.003 nM (as headed)) was 0.3771. The “human TLR9 activity, reporter signal” value (compound 0.01 nM (as headed)) was 0.3689, the “human TLR9 activity, reporter signal” value (compound 0.03 nM (as headed)) was 0.3826 and the “human TLR9 activity, reporter signal” value (compound 0.1 nM (as headed)) was 0.3836. The “human TLR9 activity, reporter signal” value (compound 0.3 nM (as headed)) was 0.372, the “human TLR9 activity, reporter signal” value (compound 1 nM (as headed)) was 0.3752 and the “human TLR9 activity, reporter signal” value (compound 3 nM (as headed)) was 0.3176. For the same compound, the “human TLR9 activity, reporter signal” value (compound 10 nM (as headed)) was 0.265, the “human TLR9 activity, reporter signal” value (compound 30 nM (as headed)) was 0.06893 and the “human TLR9 activity, reporter signal” value (compound 100 nM (as headed)) was 0.01837.

For `CCOc1nc(C)c2nc(-c3cncc(F)c3)n(Cc3ccc(CN4C[C@@H]5C[C@H]4CN5C)cc3)c2n1` [Cpd-7], the “human TLR9 activity, reporter signal” value (compound 0.0001 nM (as headed)) was 0.3816, the “human TLR9 activity, reporter signal” value (compound 0.001 nM (as headed)) was 0.3944 and the “human TLR9 activity, reporter signal” value (compound 0.003 nM (as headed)) was 0.4214. For the same compound, the “human TLR9 activity, reporter signal” value (compound 0.01 nM (as headed)) was 0.4209, the “human TLR9 activity, reporter signal” value (compound 0.03 nM (as headed)) was 0.4048 and the “human TLR9 activity, reporter signal” value (compound 0.1 nM (as headed)) was 0.3963. For the same compound, the “human TLR9 activity, reporter signal” value (compound 0.3 nM (as headed)) was 0.3799, the “human TLR9 activity, reporter signal” value (compound 1 nM (as headed)) was 0.3655 and the “human TLR9 activity, reporter signal” value (compound 3 nM (as headed)) was 0.3183. For the same compound, the “human TLR9 activity, reporter signal” value (compound 10 nM (as headed)) was 0.2034, the “human TLR9 activity, reporter signal” value (compound 30 nM (as headed)) was 0.05003 and the “human TLR9 activity, reporter signal” value (compound 100 nM (as headed)) was -0.002975.

`CCN(CCO)CCCC(C)Nc1ccnc2cc(Cl)ccc12` (centres unmarked) [HCQ, hydroxychloroquine, reference compound] was tested, and the “human TLR9 activity, reporter signal” value (compound 0.0001 nM (as headed)) was 0.3549, the “human TLR9 activity, reporter signal” value (compound 0.01 nM (as headed)) was 0.3663 and the “human TLR9 activity, reporter signal” value (compound 0.03 nM (as headed)) was 0.3271. The “human TLR9 activity, reporter signal” value (compound 0.1 nM (as headed)) was 0.2912, the “human TLR9 activity, reporter signal” value (compound 0.3 nM (as headed)) was 0.1984 and the “human TLR9 activity, reporter signal” value (compound 1 nM (as headed)) was 0.0758. For the same compound, the “human TLR9 activity, reporter signal” value (compound 3 nM (as headed)) was 0.0184, the “human TLR9 activity, reporter signal” value (compound 10 nM (as headed)) was -0.013 and the “human TLR9 activity, reporter signal” value (compound 30 nM (as headed)) was -0.01145. The “human TLR9 activity, reporter signal” value (compound 100 nM (as headed)) was -0.00085.
